10 molecules from patent US12522575B2, “2-diarylmethyl-4-aminotetrahydropyran derivatives and related compounds as anticancer, antiinflammatory, antifibrotic and neuroprotective agents” (Atux Iskay LLC, priority 2021, dated 2026) can be followed below.

One assay deals with D425 medulloblastoma cells. Description: D425 cell viability / proliferation (CellTiter-Glo). It is filed as cell-based. Conditions: @ 30 μM, 48 hours. How it is done:
D425 medulloblastoma cells were purchased from SigmaAldrich. D425 meduloblastoma cells were cultured in improved Dulbecco's modified Eagle's medium (DMEM) Richter's modification supplemented with 20% fetal bovine serum and 1% Penicillin-streptomycin. Incubation was performed at 37° C. and 5% CO2.
D425 cells were seeded at 3000-3500 cells/90 ul growth medium per well on 96-well tissue culture plates. Cells were incubated overnight to allow them to recover. Next day cells were treated with tested compounds and incubated for 48 hours.
Cell Proliferation assays in triplicate were performed at each concentration. Compounds test range was 1-30 μM (0, 5, 10, 15, 20, 25, and 30). The compounds were dissolved in DMSO. A series of dilutions were made in 1% DMSO in growth medium so that the final concentration of DMSO is 0.1% in all of treatments.
After treatment, cells were allowed to equilibrate at room temperature for one hour. Cell proliferation was measured by Luminescence quantification using Promega CellTiter-Glo Luminescent Cell Viability Assay. To perform the assay, 90 ul of Celltiter-Glo substrate was added to each well, plates were shake for 2 minutes and allowed to equilibrate for 10 minutes at room temperature. Luminescence intensity was measured using the Spectramax i3x plate reader.
The Luminescence intensity data were analyzed using the computer software Graphpad Prism. In the absence of the compound, the luminescence intensity (Lt) in each data set was defined as 100% cell viability. The percent cell in the presence of each compound was calculated according to the following equation: % Cell=L/Lt, were L=the luminescence intensity in the presence of the compound.
The values of % cell versus a series of compound concentrations (0, 5, 10, 15, 20, 25, and 30 μM) were then plotted using Nonlinear regression analysis of Sigmoidal dose-response curve. IC50 value was determined by the concentration causing a half-maximal percent activity.
(Cellular ATP, detected with luciferase, serves as a proxy for viable cell number.)
Turning to `O=C(NC1CCOC(C2c3ccccc3CCc3ccccc32)C1)c1ccc(OC(F)(F)F)cc1` (stereo not drawn) [Example 14, N-(2-(10,11-dihydro-5H-dibenzo[a,d][7]annulen-5-yl)tetrahydro-2H-pyran-4-yl)-4-(trifluoromethoxy)benzamide], the “D425 cell growth, effect at single concentration” value is around 50% @ 30 μM.

The assay is the same for the next values; noted with them: Medulloblastoma cell; 48 hours treatment, CellTiter-Glo; read-out: IC50 for D425 cell growth.
For the molecule `O=S(=O)(NC1CCOC(C2c3ccccc3CCc3ccccc32)C1)c1ccc(OC(F)(F)F)cc1` (racemic) [Example 2, N-(2-(10,11-dihydro-5H-dibenzo[a,d][7]annulen-5-yl)tetrahydro-2H-pyran-4-yl)-4-(trifluoromethoxy)benzenesulfonamide], the IC50 amounted to 10.3 µM.
Turning to `O=S(=O)(N[C@H]1CCO[C@@H](C2c3ccccc3CCc3ccccc32)C1)c1ccc(OC(F)(F)F)cc1` (single isomer, unassigned) [Example 7], the IC50 amounted to 5.3 µM.
Turning to `O=S(=O)(NC1CCOC(C2c3ccccc3CCc3ccccc32)C1)c1ccc(Cl)cc1` (stereo not drawn) [Example 9, 4-chloro-N-(2-(10,11-dihydro-5H-dibenzo[a,d][7]annulen-5-yl)tetrahydro-2H-pyran-4-yl)benzenesulfonamide], the IC50 was found to be 6.6 µM.
In the case of `O=S(=O)(NC1CCOC(C2c3ccccc3CCc3ccccc32)C1)c1ccc(C(F)(F)F)cc1` (stereo not drawn) [Example 10, N-(2-(10,11-dihydro-5H-dibenzo[a,d][7]annulen-5-yl)tetrahydro-2H-pyran-4-yl)-4-(trifluoromethyl)benzenesulfonamide], the IC50 worked out at 6 µM.
For `Cc1ccc(S(=O)(=O)NC2CCOC(C3c4ccccc4CCc4ccccc43)C2)cc1` (stereo not drawn) [Example 11, N-(2-(10,11-dihydro-5H-dibenzo[a,d][7]annulen-5-yl)tetrahydro-2H-pyran-4-yl)-4-meth ylbenzenesulfonamide], the IC50 was 9.5 µM.
In the case of `O=S(=O)(NC1CCOC(C2c3ccccc3CCc3ccccc32)C1)c1ccc(Br)cc1` (stereo not drawn) [Example 12, 4-bromo-N-(2-(10,11-dihydro-5H-dibenzo[a,d][7]annulen-5-yl)tetrahydro-2H-pyran-4-yl)benzenesulfonamide], the IC50 worked out at 6.2 µM.
The same measure, in the same setting: the figure for `O=S(=O)(NC1CCOC(C2c3ccccc3CCc3ccccc32)C1)c1cccc(C(F)(F)F)c1` (stereo not drawn) [Example 13, N-(2-(10,11-dihydro-5H-dibenzo[a,d][7]annulen-5-yl)tetrahydro-2H-pyran-4-yl)-3-(trifluoromethyl)benzenesulfonamide] is 5.1 µM.
As to `O=S(=O)(NC1CCOC(C(c2ccccc2)c2ccccc2)C1)c1ccc(OC(F)(F)F)cc1` (stereo not drawn) [Example 15, N-(2-benzhydryltetrahydro-2H-pyran-4-yl)-4-(trifluoromethoxy)benzenesulfonamide], the IC50 was determined as 11.2 µM.
Turning to `O=S(=O)(NC1CCOC(C(c2ccc(F)cc2)c2ccc(F)cc2)C1)c1ccc(OC(F)(F)F)cc1` (stereo not drawn) [Example 16, N-(2-(bis(4-fluorophenyl)methyl)tetrahydro-2H-pyran-4-yl)-4-(trifluoromethoxy)benzenesulfonamide], the IC50 came out at 7.3 µM.

Another assay deals with phosphatase activity in ApoE transfected A172 glioblastoma cells. In words: Cellular in vitro phosphatase activation assay (Malachite Green) in ApoE transfected A172 cells. It counts as cell-based. Conditions: 24 hours. How it is done:
Cellular in vitro phosphatase activation assay was performed using the method of Theendakara et al, Molecular and Cellular Neuroscience, 83 (2017), pages 83-91 which is described below:
(§1) A172 glioblastoma cells were cultured in Dulbecco's modified Eagle's medium (DMEM) supplemented with 10% fetal bovine serum and 1% Penicillin-streptomycin. Incubation was performed at 37° C. and 5% CO2.
A172 cells were seeded at 5×10^5 cells/2.5 ml growth medium (without antibiotics) per well on 6-well tissue culture plates. Cells were incubated overnight to allow them to recover and reattach. […]
After 24 hrs, cells were washed twice with imidazole buffer and lysed using NP-40 Lysis buffer. […] The amount of phosphate release in the assay was determined by measuring absorbance at 620 nm using the Spectramax i3x plate reader.
The absorbance intensity data were analyzed using the computer software Graphpad Prism. The phosphate concentration for each sample was determined from the standard curve using phosphate standard concentrations. In order to compare samples, the first set (column A) were there was no transfection performed and no compound added, was designated a baseline; the absorbance measurement in this column was set as 100% phosphatase activity.
As for `O=S(=O)(NC1CCOC(C2c3ccccc3CCc3ccccc32)C1)c1ccc(OC(F)(F)F)cc1` (racemic) [Example 2, N-(2-(10,11-dihydro-5H-dibenzo[a,d][7]annulen-5-yl)tetrahydro-2H-pyran-4-yl)-4-(trifluoromethoxy)benzenesulfonamide], the “% increase from ApoE transfected cell at 5 μM test compound concentration” value amounted to 7.2%.

The subject of a further assay is A172 glioblastoma cells. In words: A172 cell viability / proliferation (CellTiter-Glo). It is filed as cell-based. Conditions: Homo sapiens, A 172, 48-72 hours treatment, read-out: IC50 for A172 cell growth. Here is the method: as §1
A172 cells were seeded at 3000-3500 cells/90 μL growth medium per well on 96-well tissue culture plates. Cells were incubated overnight to allow them to recover and reattach. Next day cells were treated with tested compounds and incubated for 48-72 hours.
Cell Proliferation assays in triplicate were performed at each concentration. Compounds test range was 1-30 µM (0, 5, 10, 15, 20, 25, and 30). The compounds were dissolved in DMSO. […]
After treatment, cells were allowed to equilibrate at room temperature for 1/2 to one hour. Cell proliferation was measured by Luminescence quantification using Promega CellTiter-Glo Luminescent Cell Viability Assay. […] Luminescence intensity was measured using the Spectramax i3× plate reader.
The Luminescence intensity data were analyzed using the computer software Graphpad Prism. In the absence of the compound, the luminescence intensity (Lt) in each data set was defined as 100% cell viability. The percent cell in the presence of each compound was calculated according to the following equation: % Cell=L/Lt, were L=the luminescence intensity in the presence of the compound. […]
As for `O=S(=O)(NC1CCOC(C2c3ccccc3CCc3ccccc32)C1)c1ccc(OC(F)(F)F)cc1` (racemic) [Example 2, N-(2-(10,11-dihydro-5H-dibenzo[a,d][7]annulen-5-yl)tetrahydro-2H-pyran-4-yl)-4-(trifluoromethoxy)benzenesulfonamide], the IC50 is 14.7 µM.

The term IC50 denotes the concentration at which inhibition is half-maximal.
